System: CHK1
Assay: CHK1 SPA Assay
Type: biochemical
Conditions: recombinant His-CHK1, CDC25C biotinylated peptide, 1 μM ATP, 2 hours, room temperature
Experimental: CHK1 SPA Assay An in vitro assay was developed that utilizes recombinant His-CHK1 expressed in the baculovirus expression system as an enzyme source and a biotinylated peptide based on CDC25C as substrate (biotin-[…]). Materials and Reagents: 1) CDC25C […]-term Biotinylated peptide substrate (25 mg), stored at -20° C., Custom Synthesis by Research Genetics: biotin-[…] 2) His-CHK1 In House lot P976, 235 μg/mL, stored at -80° C. 3) D-PBS (without CaCl and MgCl): GIBCO, Cat.# 14190-144 4) SPA beads: Amersham, Cat.# SPQ0032: 500 mg/vial • Add 10 mls of D-PBS to 500 mg of SPA beads to make a working concentration of 50 mg/ml. Store at 4° C. Use within 2 week after hydration. 5) 96-Well White Microplate with Bonded GF/B filter: Packard, Cat.# 6005177 6) Top seal-A 96 well Adhesive Film: Perkin Elmer, Cat.# 6005185 7) 96-well Non-Binding White Polystyrene Plate: Corning, Cat. # 6005177 8) MgCl2: Sigma, Cat.# M-8266 9) DTT: Promega, Cat.# V3155 10) ATP, stored at 4° C.: Sigma, Cat.# A-5394 11) γ^33P-ATP, 1000-3000 Ci/mMol: Amersham, Cat.# AH9968 12) NaCl: Fisher Scientific, Cat.# BP358-212 13) H3PO4 85% Fisher, Cat.#A242-500 14) Tris-HCL pH 8.0: Bio-Whittaker, Cat. # 16-[…] 15) Staurosporine, 100 ug: CALBIOCHEM. Cat. # 569397 16) Hypure Cell Culture Grade Water, 500 mL: HyClone, Cat.# SH30529.02 Reaction Mixtures: 1) Kinase Buffer: 50 mM Tris pH 8.0; 10 mM MgCl2; 1 mM DTT 2) His-CHK1, In House Lot P976, MW 30 KDa, stored at -80° C. 6 nM is required to yield positive controls of 5,000 CPM. For 1 plate (100 rxn): dilute 8 μL of 235 ug/mL (7.83 uM) stock in 2 mL Kinase Buffer. This makes a 31 nM mixture. Add 20 μL/well. This makes a final reaction concentration of 6 nM. 3) CDC25C Biotinylated peptide. Dilute CDC25C to 1 mg/mL (385 uM) stock and store at -20° C. For 1 plate (100 rxn): dilute 10 μL of 1 mg/mL peptide stock in 2 ml Kinase Buffer. This gives a 1.925 uM mix. Add 20 μL/rxn. This makes a final reaction concentration of 385 nM 4) ATP Mix. For 1 plate (100 rxn): dilute 10 μL of 1 mM ATP (cold) stock and 2 μL fresh P33-ATP (20 μCi) in 5 ml Kinase Buffer. This gives a 2 uM ATP (cold) solution; add 50 μl/well to start the reaction. Final volume is 100 μl/rxn so the final reaction concentrations will be 1 uM ATP (cold) and 0.2 μCi/reaction. 5) Stop Solution: For 1 plate add: To 10 mL Wash Buffer 2 (2M NaCl 1% H3PO4): 1 mL SPA bead slurry (50 mg); Add 100 μL/well 6) Wash buffer 1: 2 M NaCl 7) Wash buffer 2: 2 M NaCl, 1% H3PO4 Assay Procedure: [table] 1) Dilute compounds to desired concentrations in water/10% DMSO-this will give a final DMSO concentration of 1% in the reaction. Dispense 10 μl/rxn to appropriate wells. Add 10 μL 10% DMSO to positive (CHK1+CDC25C+ATP) and negative (CHK1+ATP only) control wells. […]

Row | IC50 [nM] | Structure (SMILES)
1 | 187 | Nc1ncc(-c2cc3ccccc3s2)n2cc(C3CCCNC3)nc12 (stereo not shown)
2 | 216 | Cc1ccc(-c2cnc(N)c3nc(C4CCCNC4)cn23)s1 (stereo not shown)
3 | 139 | Nc1ncc(-c2cc(-c3ccccc3)cs2)n2cc([C@H]3CCCNC3)nc12
4 | 84 | Nc1ncc(-c2cc(-c3ccc(Cl)cc3)cs2)n2cc([C@H]3CCCNC3)nc12

Reference: patent publication US20080027063A1, “IMIDAZOPYRAZINES AS PROTEIN KINASE INHIBITORS” (Schering Corporation, priority 2006, published 2008)
